Results from PubChem BioAssay (NCI).
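In this assay, cells in 96-well plates receive the compound at five concentrations for 48 hours. Endpoints are linearly interpolated between the surrounding concentrations. The concentration for 50% growth inhibition is given as GI50. TGI: concentration producing complete growth inhibition.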

Key:
Assay in all cases: NCI-60 cell line screen, 48 h
[1] = system: DU-145 prostate
[2] = system: OVCAR-3 ovarian
[3] = system: NCI-H23 lung
[4] = system: RXF 393 renal
[5] = system: A498 renal
[6] = system: SF-539 CNS
[7] = system: EKVX NSCLC
[8] = system: U251 CNS
[9] = system: COLO 205 colon
[10] = system: SR leukemia

Structure (SMILES) | GI50 [1] [µM] | TGI [1] [µM] | GI50 [2] [µM] | TGI [2] [µM] | GI50 [3] [µM] | TGI [3] [µM] | GI50 [4] [µM] | TGI [4] [µM] | GI50 [5] [µM] | TGI [5] [µM] | GI50 [6] [µM] | TGI [6] [µM] | GI50 [7] [µM] | TGI [7] [µM] | GI50 [8] [µM] | TGI [8] [µM] | GI50 [9] [µM] | TGI [9] [µM] | TGI [10] [µM]
Oc1c(Cl)cc(Cl)cc1C(c1cc(Cl)cc(Cl)c1O)C(Cl)(Cl)Cl | 4.12 | 15.7 | 2.4 | 10.8 | 1.45 | 5.15 | 2.38 | 6.66 | 1.68 | 5.77 | 3.17 | 13 | 1.61 | 4.51 | 2.52 | 14.4 | 1.89 | 4.76 | 
Nc1n[n+](-c2ccccc2)no1 |  |  |  | > 100 |  | > 100 |  |  |  | > 100 |  | > 100 |  | > 100 |  | > 100 |  | > 100 | 
CC1=C(O)/C(=C/C(C)CCC/C(C)=C/C=C/C(C)CCCc2ccoc2)OC1=O (stereo unspecified) |  |  |  |  |  | 59.3 |  | > 100 |  |  |  | > 100 |  | 67.1 |  | > 100 |  | > 100 | 
N#CC1(C#N)C2C=CC(c3coc4cccc2c34)C1(C#N)C#N (stereo unspecified) |  |  |  | 29.9 |  | 36.9 |  | 9.66 |  | 34.6 |  | 35.2 |  | 33 |  | 33.9 |  | 4.4 | 7.83
N#Cc1c(N)nc(N2CCOCC2)c(C#N)c1-c1ccccn1 | > 100 | > 100 | > 100 | > 100 | > 100 | > 100 | > 100 | > 100 | > 100 | > 100 | > 100 | > 100 | > 100 | > 100 | > 100 | > 100 | > 100 | > 100 | 
COc1ccc(/C=C2\CCC(CCN(C)C)(C3=CCCC3)C2=O)cc1Br (stereo unspecified) |  |  |  | 19.3 |  | 29 |  | 6.99 |  | 23.5 |  | 25.7 |  | 8.62 |  | 19 |  | 3.01 | 5.06
CCCCCCCCCC(=O)OCC1OC(n2cc(F)c(=O)[nH]c2=O)C(NC(=O)OCc2ccccc2)C(OC(=O)CCCCCCCCC)C1O (stereo unspecified) |  |  |  | 48.5 |  | 62 |  | 44 |  | > 100 |  | > 100 |  | > 100 |  | 30.3 |  | > 100 | 81.2
Cc1cccc(C(C)(C)C)c1NC(=O)CCc1nc(=S)[nH][nH]1 |  |  |  | > 100 |  | > 100 |  | > 100 |  | > 100 |  | > 100 |  |  |  | > 100 |  | > 100 | 
CCOC(=O)C(CC/C=C\c1ccccc1)N1CCC[C@H]1C(=O)OC (stereo partly specified) |  |  |  | > 100 |  | > 100 |  | > 100 |  | > 100 |  | > 100 |  | > 100 |  | > 100 |  | > 100 | > 100
O=NNc1ccc(Sc2ccc(NN=O)cn2)nc1 |  | > 100 |  | > 100 |  | > 100 |  |  |  | > 100 |  | > 100 |  | > 100 |  | > 100 |  | > 100 | > 100
